The target of data set [1] is T1, glucocerebrosidase (Gcase) (Homo sapiens, UniProt P04062).
T1 sequence (P04062 40-536): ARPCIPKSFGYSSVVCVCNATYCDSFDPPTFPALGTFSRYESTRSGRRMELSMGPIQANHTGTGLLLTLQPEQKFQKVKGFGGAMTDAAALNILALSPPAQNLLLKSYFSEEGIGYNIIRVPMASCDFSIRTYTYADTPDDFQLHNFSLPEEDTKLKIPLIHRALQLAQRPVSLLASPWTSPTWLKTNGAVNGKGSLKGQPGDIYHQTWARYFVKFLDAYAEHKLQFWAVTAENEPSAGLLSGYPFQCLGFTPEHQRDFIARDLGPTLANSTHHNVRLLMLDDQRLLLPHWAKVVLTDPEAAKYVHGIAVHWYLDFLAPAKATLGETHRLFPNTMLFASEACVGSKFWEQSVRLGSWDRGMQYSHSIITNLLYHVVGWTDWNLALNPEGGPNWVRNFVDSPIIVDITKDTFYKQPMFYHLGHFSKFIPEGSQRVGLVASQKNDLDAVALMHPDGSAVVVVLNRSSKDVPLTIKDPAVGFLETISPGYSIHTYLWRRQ
Kind of data set: Glucocerebrosidase (Gcase) activation assay, 4-methylumbelliferyl-beta-D-glucopyranoside substrate, with saposin C. The data set is classed as biochemical. The note with it: for activation at 0.1 µM: test compound at 0.1 μM, read-out: Percent Gcase Activation, 0.1 μM Test Compound; for activation at 1 µM: test compound at 1.0 μM, read-out: Percent Gcase Activation, 1 μM Test Compound. In a few lines:
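Micellar buffer (176 mM K2HPO4/50 mM citric acid, pH 4.7; 0.32 mM triton, 0.37 mol % PS) holding 10 nM GCase and 100 nM saposin C, pre-incubated with compound 30 min at room temperature. Substrate final 2 mM before mixing; 15 min reaction, glycine pH 12.5 stop, fluorescence 365/440 nm. Screened at 1.0 and 0.1 μM; 8-point, 3-fold dose response.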

Data set [2] can be described thus: Compound solubility in water. The format is physicochemical. The note with it: in water.

Values after ≈ are worked out from the molar mass of the structure shown. Some results are limits rather than exact numbers.

The results in this text go back to patent US9920061B2, “Imidazo[1,5-A]pyrimidinyl carboxamide compounds and their use in the treatment of medical disorders” (Lysosomal Therapeutics Inc., priority 2016, dated 2018).

As usually defined, the solubility is the dissolved amount per volume that the medium holds. Read a low solubility as little dissolved substance. In the case of `C#CC(C)(C)NC(=O)c1ncn2c(C)cc(-c3cccc4nccn34)nc12` [IV-24], in data set [1], the activation at 0.1 µM was < 10% and the activation at 1 µM is < 30%. In data set [2], the solubility is 2.5 µg/mL (≈ 6.98 µM).
In the case of `Cc1cc(-c2cccc3nccn23)nc2c(C(=O)NC(C3CC3)C(F)(F)F)ncn12` (stereo not drawn) [IV-25], in data set [1], the activation at 0.1 µM was < 10% and the activation at 1 µM was < 30%. For the same compound, in data set [2], the solubility amounted to 3.3 µg/mL (≈ 7.96 µM).
As for `C#CC(C)(C)NC(=O)c1ncn2c(C)cc(-c3ccc4c(c3)OCO4)nc12` [IV-26], in data set [1], the activation at 0.1 µM fell in the range of 10 to 20% and the activation at 1 µM is > 60%. This compound also yielded a solubility in data set [2] of 0.5 µg/mL (≈ 1.38 µM).
For the compound `C#CC(C)(C)NC(=O)c1ncn2c(C)cc(-c3cccc4c3OCO4)nc12` [IV-27], in data set [1], the activation at 0.1 µM was < 10% and the activation at 1 µM is < 30%. In data set [2], this compound registered a solubility of 1.1 µg/mL (≈ 3.04 µM).
Turning to `Cc1cc(-c2ccc3c(c2)OCO3)nc2c(C(=O)N[C@@H](C)C3CC3)ncn12` [IV-28], in data set [1], the activation at 0.1 µM was > 20% and the activation at 1 µM was > 60%. In data set [2], this compound gave a solubility of 1.1 µg/mL (≈ 3.02 µM).
Taken in the same sequence, the figures for `Cc1cc(-c2ccc3c(c2)OCO3)nc2c(C(=O)N[C@H](C)C3CC3)ncn12` [IV-29] were > 20%, > 60% and 1.1 µg/mL (≈ 3.02 µM).
For `Cc1cc(-c2cccc3c2OCO3)nc2c(C(=O)N[C@@H](C)C3CC3)ncn12` [IV-30], in that order: > 20%, > 60% and 0.5 µg/mL (≈ 1.37 µM).
In the case of `Cc1cc(-c2cccc3c2OCO3)nc2c(C(=O)N[C@H](C)C3CC3)ncn12` [IV-31], in data set [1], the activation at 0.1 µM was in the range of 10 to 20% and the activation at 1 µM was > 60%. The compound also showed a solubility in data set [2] of 1.4 µg/mL (≈ 3.84 µM).
For `Cc1cc(-c2cscc2C#N)nc2c(C(=O)NC(C3CC3)C(F)(F)F)ncn12` (stereo not drawn) [IV-32], in that order: > 20%, > 60% and 0.6 µg/mL (≈ 1.48 µM).
For `Cc1cc(-c2ccc(C#N)o2)nc2c(C(=O)NC(C3CC3)C(F)(F)F)ncn12` (stereo not drawn) [IV-33], in that order: > 20%, > 60% and 0.7 µg/mL (≈ 1.8 µM).
For `Cc1cc(-c2cccc(C#N)c2F)nc2c(C(=O)NC(C3CC3)C(F)(F)F)ncn12` (stereo not drawn) [IV-36], in that order: > 20%, > 60% and 0.5 µg/mL (≈ 1.2 µM).
For `Cc1cc(-c2sccc2C#N)nc2c(C(=O)NC(C3CC3)C(F)(F)F)ncn12` (stereo not drawn) [IV-37], in data set [1], the activation at 0.1 µM was > 20% and the activation at 1 µM was > 60%. This compound returned a solubility in data set [2] of 2.4 µg/mL (≈ 5.92 µM).
For `Cc1cc(-c2cccc(F)c2C#N)nc2c(C(=O)NC(C3CC3)C(F)(F)F)ncn12` (stereo not drawn) [IV-38], in data set [1], the activation at 0.1 µM was > 20% and the activation at 1 µM was > 60%. The compound further showed a solubility in data set [2] of 0.4 µg/mL (≈ 0.958 µM).
`Cc1cc(-c2cccc(C#N)n2)nc2c(C(=O)NC(C3CC3)C(F)(F)F)ncn12` (stereo not drawn) [IV-39]: in data set [1], the activation at 0.1 µM was < 10% and the activation at 1 µM is 30 to 60%. Also, the concentration in solution in data set [2] (solubility) was 0.3 µg/mL (≈ 0.749 µM).
For `Cc1cc(-c2ccccc2CC#N)nc2c(C(=O)NC(C3CC3)C(F)(F)F)ncn12` (stereo not drawn) [IV-40], in data set [1], the activation at 0.1 µM was < 10% and the activation at 1 µM lay within 30 to 60%. Also, in data set [2], the solubility was 15.4 µg/mL (≈ 37.3 µM).
For `Cc1cc(-c2cccc3ncnn23)nc2c(C(=O)NC(C3CC3)C(F)(F)F)ncn12` (stereo not drawn) [IV-41], in that order: < 10%, 30 to 60% and 3.5 µg/mL (≈ 8.43 µM).
Taken in the same sequence, the figures for `Cc1cc(-c2cccn3cnnc23)nc2c(C(=O)NC(C3CC3)C(F)(F)F)ncn12` (stereo not drawn) [IV-42] were < 10%, > 60% and 2.1 µg/mL (≈ 5.06 µM).
For `Cc1cc(-c2ccc3nncn3c2)nc2c(C(=O)NC(C3CC3)C(F)(F)F)ncn12` (stereo not drawn) [IV-43], in that order: < 10%, < 30% and 17.5 µg/mL (≈ 42.1 µM).
With `Cc1cc(-c2ccc(F)cc2)nc2c(C(=O)NC(C3CC3)C(F)(F)F)ncn12` (stereo not drawn) [IV-44], in data set [1], the activation at 0.1 µM is > 20% and the activation at 1 µM was > 60%. Further, the solubility in data set [2] came to 0.8 µg/mL (≈ 2.04 µM).
For `Cc1cc(-c2ccc(F)cc2)nc2c(C(=O)N[C@H](C3CC3)C(F)(F)F)ncn12` [IV-45], in that order: > 20%, > 60% and 2.5 µg/mL (≈ 6.37 µM).
Taken in the same sequence, the figures for `Cc1cc(-c2ccc(F)cc2)nc2c(C(=O)N[C@@H](C3CC3)C(F)(F)F)ncn12` [IV-46] were > 20%, > 60% and 0.8 µg/mL (≈ 2.04 µM).
Taken in the same sequence, the figures for `Cc1cc(-c2cccc3scnc23)nc2c(C(=O)NC(C3CC3)C(F)(F)F)ncn12` (stereo not drawn) [IV-47] were < 10%, 30 to 60% and 3.8 µg/mL (≈ 8.81 µM).
As for `Cc1cc(-c2cccc3ncsc23)nc2c(C(=O)NC(C3CC3)C(F)(F)F)ncn12` (stereo not drawn) [IV-48], in data set [1], the activation at 0.1 µM was in the range of 10 to 20% and the activation at 1 µM is > 60%. Moreover, the solubility in data set [2] came out at 0.4 µg/mL (≈ 0.927 µM).
For `Cc1cc(-c2ccc3scnc3c2)nc2c(C(=O)NC(C3CC3)C(F)(F)F)ncn12` (stereo not drawn) [IV-49], in that order: > 20%, > 60% and 0.6 µg/mL (≈ 1.39 µM).
Take `Cc1cc(-c2nccs2)nc2c(C(=O)NC(C3CC3)C(F)(F)F)ncn12` (stereo not drawn) [IV-50]: in data set [1], the activation at 0.1 µM fell in the range of 10 to 20% and the activation at 1 µM was > 60%. Further, the concentration in solution in data set [2] (solubility) was 1.5 µg/mL (≈ 3.93 µM).
Taken in the same sequence, the figures for `Cc1cc(-c2cnsc2)nc2c(C(=O)NC(C3CC3)C(F)(F)F)ncn12` (stereo not drawn) [IV-51] were > 20%, > 60% and 2.1 µg/mL (≈ 5.51 µM).
For `Cc1cc(-c2cnsc2)nc2c(C(=O)N[C@H](C3CC3)C(F)(F)F)ncn12` [IV-52], in that order: 10 to 20%, > 60% and 15.4 µg/mL (≈ 40.4 µM).
Taken in the same sequence, the figures for `Cc1cc(-c2cnsc2)nc2c(C(=O)N[C@@H](C3CC3)C(F)(F)F)ncn12` [IV-53] were 10 to 20%, > 60% and 13.2 µg/mL (≈ 34.6 µM).
For the compound `Cc1cc(-c2cnsc2)nc2c(C(=O)NC(C)(C)C)ncn12` [IV-55], in data set [1], the activation at 0.1 µM is < 10% and the activation at 1 µM is > 60%. In data set [2], this compound had a solubility of 8.2 µg/mL (≈ 26 µM).
Taken in the same sequence, the figures for `COc1cc(F)cc(-c2cc(C)n3cnc(C(=O)N[C@@H](C)C4CC4)c3n2)c1` [IV-56] were > 20%, > 60% and 3.7 µg/mL (≈ 10 µM).
Regarding `COc1cc(F)cc(-c2cc(C)n3cnc(C(=O)NC(C)C(F)(F)F)c3n2)c1` (stereo not drawn) [IV-57], in data set [1], the activation at 0.1 µM was > 20% and the activation at 1 µM was > 60%. For the same compound, the concentration in solution in data set [2] (solubility) was 1.2 µg/mL (≈ 3.03 µM).
For `COc1cc(F)cc(-c2cc(C)n3cnc(C(=O)N[C@H](C)C(F)(F)F)c3n2)c1` [IV-58], in data set [1], the activation at 0.1 µM was > 20% and the activation at 1 µM is > 60%. The compound further registered a solubility in data set [2] of 2.3 µg/mL (≈ 5.8 µM).
Taken in the same sequence, the figures for `COc1cc(F)cc(-c2cc(C)n3cnc(C(=O)N[C@@H](C)C(F)(F)F)c3n2)c1` [IV-59] were > 20%, > 60% and 2.2 µg/mL (≈ 5.55 µM).
Taken in the same sequence, the figures for `Cc1cc(-c2cccc(-c3ncco3)c2)nc2c(C(=O)NC(C3CC3)C(F)(F)F)ncn12` (stereo not drawn) [IV-60] were > 20%, > 60% and 2.3 µg/mL (≈ 5.21 µM).
Taken in the same sequence, the figures for `COc1c(F)cccc1-c1cc(C)n2cnc(C(=O)N[C@@H](C)C3CC3)c2n1` [IV-62] were < 10%, > 60% and 16 µg/mL (≈ 43.4 µM).
As to `COc1c(F)cccc1-c1cc(C)n2cnc(C(=O)NC(C3CC3)C(F)(F)F)c2n1` (stereo not drawn) [IV-63], in data set [1], the activation at 0.1 µM fell in the range of 10 to 20% and the activation at 1 µM was > 60%. The compound also registered a solubility in data set [2] of 3.1 µg/mL (≈ 7.34 µM).
Taken in the same sequence, the figures for `COc1c(F)cccc1-c1cc(C)n2cnc(C(=O)NC(C)C(F)(F)F)c2n1` (stereo not drawn) [IV-64] were < 10%, 30 to 60% and 21 µg/mL (≈ 53 µM).
For `COc1c(C#N)cccc1-c1cc(C)n2cnc(C(=O)N[C@@H](C)C3CC3)c2n1` [IV-65], in that order: < 10%, < 30% and 15.6 µg/mL (≈ 41.6 µM).
Taken in the same sequence, the figures for `COc1c(C#N)cccc1-c1cc(C)n2cnc(C(=O)NC(C)C(F)(F)F)c2n1` (stereo not drawn) [IV-66] were < 10%, < 30% and 23.9 µg/mL (≈ 59.3 µM).
On to `COc1c(C#N)cccc1-c1cc(C)n2cnc(C(=O)NC(C3CC3)C(F)(F)F)c2n1` (stereo not drawn) [IV-67], for which, in data set [1], the activation at 0.1 µM was < 10% and the activation at 1 µM is 30 to 60%. Further, the solubility in data set [2] was 13.5 µg/mL (≈ 31.4 µM).
Taken in the same sequence, the figures for `COc1cccc(-c2cc(C)n3cnc(C(=O)N[C@@H](C)C4CC4)c3n2)c1C#N` [IV-68] were > 20%, > 60% and 0.7 µg/mL (≈ 1.86 µM).
